# Data reported in patent publication US20250213735A1, “NEUROPEPTIDE Y1 RECEPTOR (NPY1R) TARGETED THERAPEUTICS AND USES THEREOF” (Radionetics Oncology, Inc., priority 2023, published 2025).
# Numbered stars: 1 amine (or outer) side, 2 acyl side, 3 side chain; on linkers, the order of the positions; unused ones are H or OH. Square brackets hold non-standard residues; d marks the D form. Peptide text beside a SMILES is read from it. * marks the point of attachment. dArg(Nω-CONH(CH2)2NHCOEt) = CCC(=O)NCCNC(=O)/N=C(/N)NCCC[C@@H](N)C(=O)O; DOTA = O=C(O)CN1CCN(CC(=O)O)CCN(CC(=O)*)CCN(CC(=O)O)CC1; X1 = O=C([C@H](c1ccc(OCCCN[*:1])cc1)N1Cc2ccccc2C1)[*:2]; NH(2,6-F2-4-OH-benzyl) = Oc1cc(F)c(CN*)c(F)c1; Sar = CNCC(=O)O
# Molecular target: hNPY1R (Homo sapiens (Human), UniProt P25929)
# Sequence (P25929 whole entry): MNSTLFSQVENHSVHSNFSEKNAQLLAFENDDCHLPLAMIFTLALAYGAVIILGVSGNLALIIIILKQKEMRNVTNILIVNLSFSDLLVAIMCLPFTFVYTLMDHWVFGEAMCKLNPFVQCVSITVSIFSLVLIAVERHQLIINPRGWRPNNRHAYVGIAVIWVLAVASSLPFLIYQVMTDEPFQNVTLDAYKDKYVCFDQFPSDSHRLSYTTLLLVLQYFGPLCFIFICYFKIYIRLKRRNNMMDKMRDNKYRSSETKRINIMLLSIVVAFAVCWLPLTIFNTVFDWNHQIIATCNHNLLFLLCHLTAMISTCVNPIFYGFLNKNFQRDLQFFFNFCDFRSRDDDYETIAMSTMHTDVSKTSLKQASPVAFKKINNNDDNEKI
# Test: NPY1R binding assay (SK-N-MC membrane, [125I]-Peptide YY competition);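 also: bound radioligand separated by filtration over GF/C filter plates and counted, Ki obtained by non-linear regression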
# Settings: not given
row,SMILES,Ki [nM]
1,"CCC(=O)NCCNC(=O)/N=C(/N)NCCC[C@@H](NC(=O)[C@H](c1ccc(OCCCNC(=O)CCCCCNC(=O)CN2CCN3CCN4CCN(CC2)CC(=O)[O][Ga]([O]C(=O)C3)[O]C(=O)C4)cc1)N1Cc2ccccc2C1)C(=O)NCc1ccc(O)cc1 [1A-Ga, Gallium (III) 2,2′,2″-(10-(2-((6-((3-(4-((1S,4R,Z)-9-amino-4-((4-hydroxybenzyl)carbamoyl)-1-(isoindolin-2-yl)-2,11,16-trioxo-3,8,10,12,15-pentaazaoctadec-9-en-1-yl)phenoxy)propyl)amino)-6-oxohexyl)amino)-2-oxoethyl)-1,4,7,10-tetraazacyclododecane-1,4,7-triyl)triacetate]",< 10

# Same assay, conditions: crude SK-N-MC membranes endogenously expressing NPY1R; [125I]-Peptide YY (human) 0.05 nM; 120 min at room temperature; read-out: hNPY1R binding Ki
row,SMILES,Ki [nM]
1,"CCNC(=O)/N=C(/N)NCCC[C@@H](NC(=O)[C@@H](c1cccc(NCCCN)c1)N1Cc2ccccc2C1)C(=O)NCc1c(F)cc(O)cc1F [66B, (R)-2-((R)-2-(3-((3-aminopropyl)amino)phenyl)-2-(isoindolin-2-yl)acetamido)-N-(2,6-difluoro-4-hydroxybenzyl)-5-((Z)-2-(ethylcarbamoyl)guanidino)pentanamide]",< 10
2,"CCC(=O)NCCNC(=O)/N=C(/N)NCCC[C@@H](NC(=O)[C@H](c1cccc(NCCCNC(=O)C[C@H](O)C[C@H](O)CCNC(=O)CN2CCN(CC(=O)O)CCN(CC(=O)O)CCN(CC(=O)O)CC2)c1)N1Cc2ccccc2C1)C(=O)NCc1ccc(O)cc1 [compound 29, 2,2′,2″-(10-(2-(((3R,5R)-7-((3-((3-((1S,4R,Z)-9-amino-4-((4-hydroxybenzyl)carbamoyl)-1-(isoindolin-2-yl)-2,11,16-trioxo-3,8,10,12,15-pentaazaoctadec-9-en-1-yl)phenyl)amino)propyl)amino)-3,5-dihydroxy-7-oxoheptyl)amino)-2-oxoethyl)-1,4,7,10-tetraazacyclododecane-1,4,7-triyl)triacetic acid]",< 10
3,"CCC(=O)NCCNC(=O)/N=C(/N)NCCC[C@@H](NC(=O)[C@H](c1ccc(OCCCCNC(=O)CCCCCNC(=O)CN2CCN(CC(=O)O)CCN(CC(=O)O)CCN(CC(=O)O)CC2)cc1)N1Cc2ccccc2C1)C(=O)NCc1ccc(O)cc1 [compound 57, 2,2′,2″-(10-(2-((6-((4-(4-((1S,4R,Z)-9-amino-4-((4-hydroxybenzyl)carbamoyl)-1-(isoindolin-2-yl)-2,11,16-trioxo-3,8,10,12,15-pentaazaoctadec-9-en-1-yl)phenoxy)butyl)amino)-6-oxohexyl)amino)-2-oxoethyl)-1,4,7,10-tetraazacyclododecane-1,4,7-triyl)triacetic acid]",< 10
4,"CCC(=O)NCCNC(=O)/N=C(/N)NCCC[C@@H](NC(=O)[C@H](c1cccc(NCCCNC(=O)CCCCCNC(=O)NCCONC(=O)CN2CCN(CC(=O)O)CCN(CC(=O)O)CCN(CC(=O)O)CC2)c1)N1Cc2ccccc2C1)C(=O)NCc1ccc(O)cc1 [compound 27, 2,2′,2″-(10-(19-((3-((1S,4R,Z)-9-amino-4-((4-hydroxybenzyl)carbamoyl)-1-(isoindolin-2-yl)-2,11,16-trioxo-3,8,10,12,15-pentaazaoctadec-9-en-1-yl)phenyl)amino)-2,8,15-trioxo-4-oxa-3,7,9,16-tetraazanonadecyl)-1,4,7,10-tetraazacyclododecane-1,4,7-triyl)triacetic acid]",< 10
5,"CCC(=O)NCCNC(=O)/N=C(/N)NCCC[C@@H](NC(=O)[C@H](c1ccccc1)N1Cc2ccccc2C1)C(=O)NCc1c(F)cc(O)cc1F [61A, (R)—N-(2,6-difluoro-4-hydroxybenzyl)-2-((S)-2-(isoindolin-2-yl)-2-phenylacetamido)-5-((Z)-2-((2-propionamidoethyl)carbamoyl)guanidino)pentanamide]",< 10
6,"CCC(=O)NCCNC(=O)/N=C(/N)NCCC[C@@H](NC(=O)[C@H](c1cccc(NCCCN)c1)N1Cc2ccccc2C1)C(=O)NCc1ccc(O)cc1 [compound 63, (R)-2-((S)-2-(3-((3-aminopropyl)amino)phenyl)-2-(isoindolin-2-yl)acetamido)-N-(4-hydroxybenzyl)-5-((Z)-2-((2-propionamidoethyl)carbamoyl)guanidino)pentanamide]",< 10
7,"CCC(=O)NCCNC(=O)/N=C(/N)NCCC[C@@H](NC(=O)[C@H](c1ccc(OCCCNC(=O)CCN(C)CCNC(=O)CN2CCN(CC(=O)O)CCN(CC(=O)O)CCN(CC(=O)O)CC2)cc1)N1Cc2ccccc2C1)C(=O)NCc1c(F)cc(O)cc1F [compound 55, 2,2′,2″-(10-(2-((2-((3-((3-(4-((1S,4R,Z)-9-amino-4-((2,6-difluoro-4-hydroxybenzyl)carbamoyl)-1-(isoindolin-2-yl)-2,11,16-trioxo-3,8,10,12,15-pentaazaoctadec-9-en-1-yl)phenoxy)propyl)amino)-3-oxopropyl)(methyl)amino)ethyl)amino)-2-oxoethyl)-1,4,7,10-tetraazacyclododecane-1,4,7-triyl)triacetic acid]",< 10
8,"CCC(=O)NCCNC(=O)/N=C(/N)NCCC[C@@H](NC(=O)[C@H](c1ccc(OCCCNC2CCN(C(=O)CCCCCNC(=O)CN3CCN(CC(=O)O)CCN(CC(=O)O)CCN(CC(=O)O)CC3)CC2)cc1)N1Cc2ccccc2C1)C(=O)NCc1c(F)cc(O)cc1F [compound 5, 2,2′,2″-(10-(2-((6-(4-((3-(4-((1S,4R,Z)-9-amino-4-((2,6-difluoro-4-hydroxybenzyl)carbamoyl)-1-(isoindolin-2-yl)-2,11,16-trioxo-3,8,10,12,15-pentaazaoctadec-9-en-1-yl)phenoxy)propyl)amino)piperidin-1-yl)-6-oxohexyl)amino)-2-oxoethyl)-1,4,7,10-tetraazacyclododecane-1,4,7-triyl)triacetic acid-2,2,2-trifluoroacetic acid (1/1)]",< 10
9,"N=C(N)NCCC[C@@H](NC(=O)C(c1ccccc1)N1CCC2(CC1)CC2)C(=O)NCc1ccc(O)cc1 (stereo partly drawn) [compound 85, (2R)-5-guanidino-N-(4-hydroxybenzyl)-2-(2-phenyl-2-(6-azaspiro[2.5]octan-6-yl)acetamido)pentanamide]",10 to 100
10,"N=C(N)NCCC[C@@H](NC(=O)C(c1ccccc1)N1CCCCC1)C(=O)NCc1ccc(O)cc1 (stereo partly drawn) [compound 72, (2R)-5-guanidino-N-(4-hydroxybenzyl)-2-(2-phenyl-2-(piperidin-1-yl)acetamido)pentanamide]",100 to 1000
11,"CCC(=O)NCCNC(=O)/N=C(/N)NCCC[C@@H](NC(=O)[C@H](c1cccc(NC(=O)CCCNc2c(NCCCCCCNC(=O)CN3CCN(CC(=O)O)CCN(CC(=O)O)CCN(CC(=O)O)CC3)c(=O)c2=O)c1)N1Cc2ccccc2C1)C(=O)NCc1c(F)cc(O)cc1F (single isomer, unassigned) [31A]",< 10
12,"CC1(C)C2CN([C@H](C(=O)N[C@H](CCCNC(=N)N)C(=O)NCc3ccc(O)cc3)c3ccccc3)CC21 (stereo partly drawn) [88A, (2R)-2-((2S)-2-(6,6-dimethyl-3-azabicyclo[3.1.0]hexan-3-yl)-2-phenylacetamido)-5-guanidino-N-(4-hydroxybenzyl)pentanamide]",100 to 1000
13,"N=C(N)NCCC[C@@H](NC(=O)C(c1ccccc1)N1CCC2(CCCC2)CC1)C(=O)NCc1ccc(O)cc1 (stereo partly drawn) [compound 84, (2R)-5-guanidino-N-(4-hydroxybenzyl)-2-(2-phenyl-2-(8-azaspiro[4.5]decan-8-yl)acetamido)pentanamide]",100 to 1000
14,"CC1(C)CCN(C(C(=O)N[C@H](CCCNC(=N)N)C(=O)NCc2ccc(O)cc2)c2ccccc2)CC1 (stereo partly drawn) [compound 74, (2R)-2-(2-(4,4-dimethylpiperidin-1-yl)-2-phenylacetamido)-5-guanidino-N-(4-hydroxybenzyl)pentanamide]",100 to 1000
15,"CCC(=O)NCCNC(=O)/N=C(/N)NCCC[C@@H](NC(=O)[C@H](c1cccc(NCCCNC(=O)CCC(=O)NCCNC(=O)CN2CCN(CC(=O)O)CCN(CC(=O)O)CCN(CC(=O)O)CC2)c1)N1Cc2ccccc2C1)C(=O)NCc1ccc(O)cc1 [compound 26, 2,2′,2″-(10-(2-((2-(4-((3-((3-((1S,4R,Z)-9-amino-4-((4-hydroxybenzyl)carbamoyl)-1-(isoindolin-2-yl)-2,11,16-trioxo-3,8,10,12,15-pentaazaoctadec-9-en-1-yl)phenyl)amino)propyl)amino)-4-oxobutanamido)ethyl)amino)-2-oxoethyl)-1,4,7,10-tetraazacyclododecane-1,4,7-triyl)triacetic acid]",< 10
16,"CCC(=O)NCCNC(=O)/N=C(/N)NCCC[C@@H](NC(=O)[C@H](c1ccc(OCCCNC(=O)CN(C)C(=O)CN(C)C(=O)CN(C)C(=O)CN2CCN(CC(=O)O)CCN(CC(=O)O)CCN(CC(=O)O)CC2)cc1)N1Cc2ccccc2C1)C(=O)NCc1c(F)cc(O)cc1F [compound 46, 2,2′,2″-(10-(15-(4-((1S,4R,Z)-9-amino-4-((2,6-difluoro-4-hydroxybenzyl)carbamoyl)-1-(isoindolin-2-yl)-2,11,16-trioxo-3,8,10,12,15-pentaazaoctadec-9-en-1-yl)phenoxy)-3,6,9-trimethyl-2,5,8,11-tetraoxo-3,6,9,12-tetraazapentadecyl)-1,4,7,10-tetraazacyclododecane-1,4,7-triyl)triacetic acid] ({DOTA}-[Sar][Sar][Sar][X1][dArg(Nω-CONH(CH2)2NHCOEt)]-{NH(2,6-F2-4-OH-benzyl)})",< 10
17,"CCC(=O)NCCNC(=O)/N=C(/N)NCCC[C@@H](NC(=O)[C@@H](c1ccc(CCCOCCOCCNC(=O)CN2CCN(CC(=O)O)CCN(CC(=O)O)CCN(CC(=O)O)CC2)cc1)N1Cc2ccccc2C1)C(=O)NCc1c(F)cc(O)cc1F (single isomer, unassigned) [8B]",10 to 100
18,"CCC(=O)NCCNC(=O)/N=C(/N)NCCC[C@@H](NC(=O)[C@H](c1ccc(OCCCNC(=O)C[C@H](O)C[C@H](O)CCNC(=O)CN2CCN(CC(=O)O)CCN(CC(=O)O)CCN(CC(=O)O)CC2)cc1)N1Cc2ccccc2C1)C(=O)NCc1c(F)cc(O)cc1F [compound 6, 2,2′,2″-(10-(2-(((3R,5R)-7-((3-(4-((1S,4R,Z)-9-amino-4-((2,6-difluoro-4-hydroxybenzyl)carbamoyl)-1-(isoindolin-2-yl)-2,11,16-trioxo-3,8,10,12,15-pentaazaoctadec-9-en-1-yl)phenoxy)propyl)amino)-3,5-dihydroxy-7-oxoheptyl)amino)-2-oxoethyl)-1,4,7,10-tetraazacyclododecane-1,4,7-triyl)triacetic acid-2,2,2-trifluoroacetic acid (1/1)]",< 10
